Experimental data reported in patent publication US5599789A, “Method for the treatment of tumours and sarcomas” (Amrad Corporation Limited, priority 1991, dated 1997).
“Also recorded” adds a separate entry of the source.

How the values were obtained:
[1] = system: Ewing's Sarcoma cell line Al-5; test: Colony formation in semi-solid agar cultures, Al-5 cells; type: cell-based, human; conditions: Al-5, 1,000 cells, day 18
Experimental: (§1) Tumour cells obtained from biopsy and bone marrow specimens from patients with Ewing's Sarcoma were used in these studies. Approval for this project has been obtained from the Ethics Committee of the Royal Children's Hospital.
(§2) Single cell suspensions of tumour cells were obtained by mechanical disruption with an 18G or 21G needle or by pipetting, followed by incubation with dispase II (Boehringer) at a concentration of 1.2 units per ml for 10 minutes at 37° C. Prior to the addition to agar-medium the cells were vortexed gently to prevent clumping.
(§3) Clonal cell lines were grown in Iscove's Modified Dulbecco's Medium (IMDM) supplemented with 10% v/v foetal calf serum (FCS; CSL Limited, Melbourne, Australia) and were passaged either weekly or twice weekly. The characteristics of the Ewing Sarcoma cell lines used herein as described below:
(§4) Cell lines derived from the above primary cell lines (Al and Cu) are identified by an Arabic numeral (e.g. Al-1, Al-5, Al-8 or Cu-1).
(§5) The tumour cells were immobilised in 0.3% w/v agar containing Iscove's Modified Dulbecco's Medium (IMDM) and 10% v/v FCS. […] Cultures were scored for the presence of colonies (>40 cells) or clusters (<40 cells). The number of cells plated per culture ranged from 500 to 10,000 per ml. Colonies were counted on an Olympus dissecting microscope.
(§6) IL-1, IL-3, IL-4, IL-6, M-CSF, G-CSF, GM-CSF, Stem Cell Factor (SCF), TNFα, TGFα, TGFβ, EGF, aFGF, bFGF, NGF, IGF I, IGF II, PDGF and IFN-γ.
(§7) The recombinant human leukaemia inhibitory factor (LIF) was obtained from AMRAD Corporation Limited, Melbourne, Australia.

[2] = system: LIF receptors on Ewing sarcoma cell line Al5; test: 125I-hLIF binding, Scatchard analysis, cloned line Al5; set-up: species or system human; conditions: Al5 cells, 3 hrs on ice, Scatchard slope, read-out: Equilibrium dissociation constant
Experimental: A cloned Ewing sarcoma cell line Al5 (7×10^6 per point) in 100 μl of RPMI-medium containing 10 mM Hepes buffer pH 7.4 and 10% v/v foetal calf serum were incubated with increasing concentrations of ^125 I-hLIF (E. coli derived) (5000-800,000 cpm: 100,000 cpm/ng) with or without 5 μg/ml of unlabelled hLIF for 3 hrs on ice. The incubation mixture was then layered over 180 μl cold foetal calf serum, centrifuged at top speed in an Eppendoff microfuge for 10 sec and the tip of the tube containing the cell pellet cut with a scalpel blade and removed for counting in a gamma counter.

[3] = system: Ewing's Sarcoma cell line Al-8; test: Colony formation in semi-solid agar cultures, Al-8 cells; type: cell-based, human; conditions: Al-8, 1,000 cells, day 18
Experimental: as §1, §2, §3, §4, §5, §6, §7

[4] = system: Ewing's sarcoma cells from cell line Al-5; test: Clonogenicity in agar after LIF pretreatment in suspension culture; type: cell-based, human
Experimental: Ewing's sarcoma cells from cell line Al-5 in suspension cultures were incubated for seven days in the presence or absence of 100 ng/ml LIF prior to inoculation of replicate agar plates with 5×10^3 cells per ml which were then incubated for a further 18 days before colonies were scored. In all cases, the frequency of colonies obtained from LIF-pretreated cells was 35-55% lower compared to control cells.

[5] = system: Ewing's sarcoma cells (cell line A1-5) xenograft; test: Ewing's tumour growth in SCID mice (subcutaneous xenograft); type: in vivo; conditions: for Histology of subcutaneous tumours / Mitotic figures in tumours: hLIF 20 μg/day, 18 days; for Histology of subcutaneous tumours: Haematoxylin and Eosin; for Mitotic figures in tumours: histology
Description: Scid mice were obtained from the Animal Resource Centre, Willetton, Western Austarlia. All mice were aged 5-8 weeks, and were the same sex (male). Severe immunodeficiency (scid) is an autosomal recessive mutation that occurred spontaneously in the CB 17 (CB-IgH-1^b (N17F34)) congenic strain (16). In this congenic strain, the inbred BALB/c strain carried the immunoglobulin heavy-chain allele (Igh-I^b) of the C57BL/Ka strain. The SCID locus has been mapped to the centromeric end of chromosome 16 (16). These mice have defective T and B cell immunity, thus allowing for engraftment of many foreign cells. The mice were maintained in a laminar flow unit. In order to reduce the mortality from infection, the mice were kept in previously autoclaved cages, and autoclaved food and acidified water was used.
Recombinant human LIF (hLIF) derived from E. coli (Lot 122, AMRAD Corporation Limited) was used. Recombinant mouse LIF (Lot 308, AMRAD Corporation Limited) and PBS/1% w/v BSA were used as controls for the in vivo injections.
5-8×10^6 cloned Ewing's sarcoma cells (cell line A1-5), were injected subcutaneously into SCID mice. Tumours were scored after about 3 weeks in almost all mice at the injection site.
To examine the effect of heterologous and homologous LIF relative to the mammal being treated, a double blind controlled study was performed using tumour bearing SCID mice that were injected with hLIF (20 μg per mouse), mouse LIF (100 ng per mouse), or PBS/1% w/v BSA. The effective amount of hLIF was required to be higher than mLIF due to the presence of high circulating levels of a hLIF binding protein in mice (17). Eight mice were injected in each group with the majority of mice in the hLIF group surviving over 2 weeks (range 15-31 days). Tumour size was assessed using calibrated calibers, with measurements in the depth, length and width of the tumours. […] The trend for smaller tumours in hLIF treated mice was evident prior to the wasting syndrome. Although not wishing to limit the present invention to any one hypothesis as to mode of action, this phenomenon may be a manifestation of LIF toxicity in mice. In most cases, this trend was noticeable within 7 days after hLIF injections.
Histological examination of the subcutaneous tumours was performed on all mice, as was a full necropsy.

[6] = Toxicity of hLIF in mice, daily subcutaneous injections; type: in vivo
Experimental: A number of preliminary experiments were performed to determine the appropriate daily dose of hLIF in mice. Mice were injected with high doses of hLIF (100 microgram per mouse). These studies led to death of the mice within 2 weeks of daily subcutaneous injections of LIF. Studies using lower doses (5-20 micrograms per mouse) of hLIF, led to survival of most of the mice for over 20 days. Retro-orbital bleeds were performed on the first 3 days to determine platelet counts. In all mice subcutaneously injected daily with 1 microgram or more of hLIF, the platelet count rose in the first 3 days (26-60% increment on baseline pretreatment levels). In this study an amount of 20 μg of hLIF was chosen to be subcutaneously injected daily into SCID mice bearing Ewing's Sarcoma tumours.

[7] = stimulus 100 ng, mean of duplicate colony counts
[8] = hLIF 20 μg per mouse daily s.c.

Substance: LIF: recombinant human leukaemia inhibitory factor (E. coli derived) from AMRAD Corporation Limited
- Colonies/Cultures ([1]; stimulus 0.01 ng): 47
- Colonies/Cultures ([1]; stimulus 0.1 ng): 27
- Colonies/Cultures ([1]; stimulus 1 ng): 25
- Colonies/Cultures ([1]; stimulus 10 ng): 18
- Colonies/Cultures [1, 7]: 2
- Kd [2]: 0.09 nM
- Colonies/Cultures ([3]; stimulus 0.01 ng): 68
- Colonies/Cultures ([3]; stimulus 0.1 ng): 29
- Colonies/Cultures ([3]; stimulus 1 ng): 23
- Colonies/Cultures ([3]; stimulus 10 ng): 6
- Colonies/Cultures [3, 7]: 3
- Frequency of colonies from LIF-pretreated cells, lower compared to control cells ([4]; Al-5, 100 ng/ml LIF for seven days in suspension, then agar 5×10^3 cells per ml, 18 days, three experiments): 35-55%
- Proportion of large colonies in LIF stimulated agar cultures ([4]; pretreatment with LIF in suspension cultures for 7-14 days): further reduced
- Time until trend for smaller tumours was noticeable ([5]; after hLIF injections, 20 μg per mouse, in most cases): ≤ 7 days
- Survival of the majority of mice [5, 8]: over 2 weeks
- Tumour size compared to PBS controls [5, 8]: significantly reduced in size; also recorded: significantly smaller
- Survival range of tumour bearing mice ([5]; hLIF 20 μg per mouse daily s.c., eight mice): 15 to 31 days
- Histology of subcutaneous tumours [5]: mainly composed of necrotic areas with only a small percentage of the tumour being made up of viable cells
- Histology of subcutaneous tumours ([5]; listed as human LIF): regressive, nectrotic tumour cells; also recorded: necrotic, regressive tumour cells
- Mitotic figures in tumours [5]: almost no mitotic figures
- Mitotic figures in tumours ([5]; listed as human LIF): lack of mitotic figures
- Viable areas of tumours ([5]; hLIF treated, microscopic examination): < 20%
- Platelet count rise, increment on baseline pretreatment levels ([6]; 1 microgram or more daily subcutaneously, first 3 days): 26-60%
- Survival of most of the mice ([6]; 5-20 micrograms per mouse): over 20 days
- Time to death of the mice ([6]; 100 microgram per mouse, daily subcutaneous injections): ≤ 2 weeks
